From PubChem BioAssay (NCI)
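All cell lines were grown in 96-well plates and treated with compound for 48 hours. The concentration for full growth arrest is given as TGI.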

Columns and labels:
Assay in all cases: inhibition of tumour cell growth, NCI panel, 48 h
SNB-75 CNS = test system: SNB-75 CNS
OVCAR-3 ovarian = test system: OVCAR-3 ovarian
HT29 colon = test system: HT29 colon
TK-10 renal = test system: TK-10 renal
NCI/ADR-RES ovarian = test system: NCI/ADR-RES ovarian
786-0 renal = test system: 786-0 renal
UO-31 renal = test system: UO-31 renal
SK-OV-3 ovarian = test system: SK-OV-3 ovarian
UACC-257 melanoma = test system: UACC-257 melanoma
BT-549 breast = test system: BT-549 breast
RPMI-8226 leukemia = test system: RPMI-8226 leukemia
T-47D breast = test system: T-47D breast
DU-145 prostate = test system: DU-145 prostate
SK-MEL-28 melanoma = test system: SK-MEL-28 melanoma
LOX IMVI melanoma = test system: LOX IMVI melanoma
A549 NSCLC = test system: A549 NSCLC
NCI-H522 lung = test system: NCI-H522 lung
SK-MEL-2 melanoma = test system: SK-MEL-2 melanoma
MDA-MB-435 = test system: MDA-MB-435
NCI-H226 lung = test system: NCI-H226 lung
M14 melanoma = test system: M14 melanoma
OVCAR-4 ovarian = test system: OVCAR-4 ovarian
SF-268 CNS = test system: SF-268 CNS
EKVX NSCLC = test system: EKVX NSCLC
SK-MEL-5 melanoma = test system: SK-MEL-5 melanoma
COLO 205 colon = test system: COLO 205 colon
SW-620 colon = test system: SW-620 colon
CCRF-CEM leukemia = test system: CCRF-CEM leukemia
SNB-19 CNS = test system: SNB-19 CNS
IGROV1 ovarian = test system: IGROV1 ovarian
U251 CNS = test system: U251 CNS
SF-295 CNS = test system: SF-295 CNS
HOP-92 NSCLC = test system: HOP-92 NSCLC
K-562 leukemia = test system: K-562 leukemia
SR leukemia = test system: SR leukemia
MCF7 breast = test system: MCF7 breast
CAKI-1 renal = test system: CAKI-1 renal
HOP-62 NSCLC = test system: HOP-62 NSCLC
MDA-MB-231 breast = test system: MDA-MB-231 breast
MDA-N = test system: MDA-N
HCT-15 colon = test system: HCT-15 colon
HS 578T breast = test system: HS 578T breast
OVCAR-8 ovarian = test system: OVCAR-8 ovarian
OVCAR-5 ovarian = test system: OVCAR-5 ovarian
A498 renal = test system: A498 renal
NCI-H460 lung = test system: NCI-H460 lung
NCI-H23 lung = test system: NCI-H23 lung
MALME-3M melanoma = test system: MALME-3M melanoma
HL-60(TB) leukemia = test system: HL-60(TB) leukemia
PC-3 prostate = test system: PC-3 prostate
MOLT-4 leukemia = test system: MOLT-4 leukemia
SF-539 CNS = test system: SF-539 CNS
SN12C renal = test system: SN12C renal
UACC-62 melanoma = test system: UACC-62 melanoma
HCC-2998 colon = test system: HCC-2998 colon
ACHN renal = test system: ACHN renal
HCT-116 colon = test system: HCT-116 colon
KM12 colon = test system: KM12 colon
RXF 393 renal = test system: RXF 393 renal

In the case of Nc1nc(Cl)c(N)c(NCC2(CO)CC(CCCc3ccccc3)C2)n1 (stereo not drawn), the TGI (SNB-75 CNS) is reported as 67.7 µM, the TGI (OVCAR-3 ovarian) is reported as over 67.2 µM and the TGI (HT29 colon) is reported as over 22.8 µM. For the same molecule, the TGI (TK-10 renal) was over 100 µM, the TGI (NCI/ADR-RES ovarian) was 63.1 µM and the TGI (786-0 renal) was over 51.7 µM. The TGI (UO-31 renal) was over 100 µM, the TGI (SK-OV-3 ovarian) was over 100 µM and the TGI (UACC-257 melanoma) was over 100 µM. The TGI (BT-549 breast) was over 81.8 µM, the TGI (RPMI-8226 leukemia) was over 50.1 µM and the TGI (T-47D breast) was over 100 µM. For the same molecule, the TGI (DU-145 prostate) was over 100 µM, the TGI (SK-MEL-28 melanoma) was over 100 µM and the TGI (LOX IMVI melanoma) was 98.7 µM. The TGI (A549 NSCLC) was over 100 µM, the TGI (NCI-H522 lung) was 19.6 µM and the TGI (SK-MEL-2 melanoma) was 30.6 µM. The TGI (MDA-MB-435) was over 100 µM, the TGI (NCI-H226 lung) was over 63.7 µM and the TGI (M14 melanoma) was over 53.4 µM. The TGI (OVCAR-4 ovarian) was over 100 µM, the TGI (SF-268 CNS) was over 55.3 µM and the TGI (EKVX NSCLC) was 10.1 µM. The TGI (SK-MEL-5 melanoma) was 15.4 µM, the TGI (COLO 205 colon) was 45.6 µM and the TGI (SW-620 colon) was over 100 µM. For the same molecule, the TGI (CCRF-CEM leukemia) was 7.16 µM, the TGI (SNB-19 CNS) was over 100 µM and the TGI (IGROV1 ovarian) was over 73.9 µM. For the same molecule, the TGI (U251 CNS) was over 100 µM, the TGI (SF-295 CNS) was over 59.5 µM and the TGI (HOP-92 NSCLC) was over 100 µM. For the same molecule, the TGI (K-562 leukemia) was over 100 µM, the TGI (SR leukemia) was over 100 µM and the TGI (MCF7 breast) was over 85.7 µM. The TGI (CAKI-1 renal) was over 100 µM, the TGI (HOP-62 NSCLC) was over 100 µM and the TGI (MDA-MB-231 breast) was 99.7 µM. The TGI (MDA-N) was over 100 µM, the TGI (HCT-15 colon) was over 100 µM and the TGI (HS 578T breast) was over 100 µM. For the same molecule, the TGI (OVCAR-8 ovarian) was over 100 µM, the TGI (OVCAR-5 ovarian) was over 100 µM and the TGI (A498 renal) was 66.1 µM. The TGI (NCI-H460 lung) was over 100 µM, the TGI (NCI-H23 lung) was over 84.4 µM and the TGI (MALME-3M melanoma) was 9.92 µM. The TGI (HL-60(TB) leukemia) was 32.2 µM, the TGI (PC-3 prostate) was over 91.5 µM and the TGI (MOLT-4 leukemia) was over 100 µM. The TGI (SF-539 CNS) was over 64.2 µM, the TGI (SN12C renal) was over 100 µM and the TGI (UACC-62 melanoma) was over 100 µM. It also gave a TGI (HCC-2998 colon) of over 100 µM, a TGI (ACHN renal) of 99.7 µM and a TGI (HCT-116 colon) of over 100 µM. The TGI (KM12 colon) was over 100 µM.

With COC(=O)C1=C(OC(=O)c2ccccc2)C(C(=O)OC)[C@]2(O)[C@@H](C(=O)OC)[C@H]1C[C@@H](c1ccccc1)[C@@H]2C(=O)OC (stereo partly drawn) the TGI (OVCAR-3 ovarian) was 57.4 µM, the TGI (HT29 colon) was 30.7 µM and the TGI (TK-10 renal) was 69.9 µM. For the same molecule, the TGI (RXF 393 renal) was 19.8 µM, the TGI (NCI/ADR-RES ovarian) was 14.1 µM and the TGI (786-0 renal) was 93.8 µM. The TGI (UO-31 renal) was 10.1 µM, the TGI (SK-OV-3 ovarian) was 48.3 µM and the TGI (UACC-257 melanoma) was 84.6 µM. It also gave a TGI (BT-549 breast) of 75.6 µM, a TGI (RPMI-8226 leukemia) of 13.8 µM and a TGI (T-47D breast) of 33.8 µM. The TGI (DU-145 prostate) was 30.3 µM, the TGI (SK-MEL-28 melanoma) was 76.3 µM and the TGI (LOX IMVI melanoma) was 26.7 µM. For the same molecule, the TGI (A549 NSCLC) was 34.5 µM, the TGI (SK-MEL-2 melanoma) was 13.9 µM and the TGI (MDA-MB-435) was 10.8 µM. It also gave a TGI (NCI-H226 lung) of 19.2 µM, a TGI (M14 melanoma) of 9.57 µM and a TGI (OVCAR-4 ovarian) of over 100 µM. It also gave a TGI (SF-268 CNS) of 36.8 µM, a TGI (EKVX NSCLC) of over 100 µM and a TGI (SK-MEL-5 melanoma) of 17.4 µM. The TGI (COLO 205 colon) was 21.8 µM, the TGI (SW-620 colon) was 40.1 µM and the TGI (CCRF-CEM leukemia) was 10.6 µM. It also gave a TGI (SNB-19 CNS) of 41.7 µM, a TGI (IGROV1 ovarian) of 21.1 µM and a TGI (U251 CNS) of 20.8 µM. For the same molecule, the TGI (SF-295 CNS) was 36.7 µM, the TGI (HOP-92 NSCLC) was 27.3 µM and the TGI (K-562 leukemia) was 18 µM. The TGI (SR leukemia) was 31.3 µM, the TGI (MCF7 breast) was 15.7 µM and the TGI (CAKI-1 renal) was over 100 µM. It also gave a TGI (HOP-62 NSCLC) of 52 µM, a TGI (MDA-MB-231 breast) of 41.4 µM and a TGI (MDA-N) of 3.95 µM. The TGI (HCT-15 colon) was 35.4 µM, the TGI (HS 578T breast) was 72.2 µM and the TGI (OVCAR-8 ovarian) was 20.3 µM. For the same molecule, the TGI (OVCAR-5 ovarian) was 73.9 µM, the TGI (A498 renal) was 64.1 µM and the TGI (NCI-H460 lung) was 42.4 µM. For the same molecule, the TGI (NCI-H23 lung) was 32.7 µM, the TGI (MALME-3M melanoma) was 52.1 µM and the TGI (HL-60(TB) leukemia) was 21.1 µM. For the same molecule, the TGI (PC-3 prostate) was 23.7 µM, the TGI (MOLT-4 leukemia) was 23 µM and the TGI (SF-539 CNS) was 14.6 µM. The TGI (SN12C renal) was 43.2 µM, the TGI (UACC-62 melanoma) was 60.4 µM and the TGI (HCC-2998 colon) was 25 µM. The TGI (ACHN renal) was 72.4 µM, the TGI (HCT-116 colon) was 14.2 µM and the TGI (KM12 colon) was over 100 µM.

Molecule CC(C)[C@@H]1ON1C(C)c1ccccc1 (stereo partly drawn) has a TGI (SNB-75 CNS) of over 100 µM, a TGI (OVCAR-3 ovarian) of over 100 µM and a TGI (HT29 colon) of over 100 µM. The TGI (TK-10 renal) was over 100 µM, the TGI (RXF 393 renal) was over 100 µM and the TGI (NCI/ADR-RES ovarian) was over 100 µM. For the same molecule, the TGI (786-0 renal) was over 100 µM, the TGI (UO-31 renal) was over 100 µM and the TGI (SK-OV-3 ovarian) was over 100 µM. For the same molecule, the TGI (UACC-257 melanoma) was over 100 µM, the TGI (BT-549 breast) was over 100 µM and the TGI (RPMI-8226 leukemia) was over 100 µM. For the same molecule, the TGI (T-47D breast) was over 100 µM, the TGI (DU-145 prostate) was over 100 µM and the TGI (SK-MEL-28 melanoma) was over 100 µM. It also gave a TGI (LOX IMVI melanoma) of over 100 µM, a TGI (A549 NSCLC) of over 100 µM and a TGI (NCI-H522 lung) of over 100 µM. The TGI (MDA-MB-435) was over 100 µM, the TGI (NCI-H226 lung) was over 100 µM and the TGI (M14 melanoma) was over 100 µM. The TGI (OVCAR-4 ovarian) was over 100 µM, the TGI (SF-268 CNS) was over 100 µM and the TGI (EKVX NSCLC) was over 100 µM. The TGI (SK-MEL-5 melanoma) was over 100 µM, the TGI (COLO 205 colon) was over 100 µM and the TGI (SW-620 colon) was over 100 µM. It also gave a TGI (CCRF-CEM leukemia) of over 100 µM, a TGI (SNB-19 CNS) of over 100 µM and a TGI (IGROV1 ovarian) of over 100 µM. The TGI (U251 CNS) was over 100 µM, the TGI (SF-295 CNS) was over 100 µM and the TGI (HOP-92 NSCLC) was over 100 µM. The TGI (K-562 leukemia) was over 100 µM, the TGI (SR leukemia) was over 100 µM and the TGI (MCF7 breast) was over 100 µM. It also gave a TGI (CAKI-1 renal) of 34.7 µM, a TGI (HOP-62 NSCLC) of over 100 µM and a TGI (MDA-MB-231 breast) of over 100 µM. The TGI (MDA-N) was over 100 µM, the TGI (HCT-15 colon) was over 100 µM and the TGI (HS 578T breast) was over 100 µM. The TGI (OVCAR-8 ovarian) was over 100 µM, the TGI (OVCAR-5 ovarian) was over 100 µM and the TGI (A498 renal) was over 100 µM. The TGI (NCI-H460 lung) was over 100 µM, the TGI (NCI-H23 lung) was over 100 µM and the TGI (MALME-3M melanoma) was over 100 µM. It also gave a TGI (HL-60(TB) leukemia) of over 100 µM, a TGI (PC-3 prostate) of over 100 µM and a TGI (MOLT-4 leukemia) of over 100 µM. It also gave a TGI (SF-539 CNS) of over 100 µM, a TGI (SN12C renal) of over 100 µM and a TGI (UACC-62 melanoma) of over 100 µM. It also gave a TGI (HCC-2998 colon) of over 100 µM, a TGI (ACHN renal) of over 100 µM and a TGI (HCT-116 colon) of over 100 µM. The TGI (KM12 colon) was over 100 µM.
